# Laboratory results published in BindingDB's records for doi:10.1021/jm00067a003 (Upjohn Laboratories, 1993).
# Target: 5-hydroxytryptamine receptor 1A (Bos taurus)
# Experiment: Binding affinity at 5-hydroxytryptamine 1A receptor in bovine hippocampal preparation using [3H]8-OH-DPAT
compound,measurement,value
CCCN(CC1CC1)[C@H]1CCc2ccc3[nH]c(C(N)=O)cc3c2C1,Ki,5.3 nM
